{
  "source": "patent US12343404B2",
  "about": "“Ligand-targeted cell conjugate (LTCC)-based anti-tumor immune cell” (priority 2020, dated 2025)",
  "system": "NK92-MI cells",
  "assay": "Influence of azido sugar on NK cell activity (CCK8, OD450)",
  "assay_type": "cell-based",
  "details": "final concentration 50 μM; 24 hours and 48 hours; vs 0.1% DMSO control",
  "procedure": "This embodiment describes validation of influences of the added non-natural sugars on cell activities. The specific method is as follows: non-natural sugars were absorbed by cells; the cells were cultured for a period of time; then, OD450 was determined using a cell counting kit 8 (CCK8) (Beyotime), and a difference in cell activities of a group added with sugars and a group without sugars was analyzed.\nThe specific process is as follows: 1×10^5 pieces of NK cells were laid in a 96-pore plates; 0.1% DMSO was added into a control group, while Ac4ManNAz with a final concentration of 50 μM (the mount of the DMSO was equivalent to 0.1%) was added into an experimental group; then, the cells were cultured in an incubator at 37° C., and subsequently added with the CCK8 after 24 hours and 48 hours respectively; and after 2-hour incubation, OD450 was detected using a microplate reader.",
  "data": [
    {"smiles": "CC(=O)OC[C@H]1OC(OC(C)=O)[C@@H](NC(=O)CN=[N+]=[N-])[C@@H](OC(C)=O)[C@@H]1OC(C)=O", "note": "(stereo partly shown) [Ac4ManNAz, N-azidoacetylmannosamine-tetraacylated]", "values": [
      {"measurement": "influence on cell activities (OD450, CCK8)", "value": "not toxic to cells, but slightly promoted growth"}
    ]}
  ]
}
